Measurements from US9365512B2, “Isoindoline derivatives, pharmaceutical compositions containing them, and their use in therapy” (AbbVie Deutschland GmbH & Co. KG, priority 2012, dated 2016).

Columns and labels:
human GlyT1c transporter = biological target: T1, human GlyT1c transporter (Homo sapiens, UniProt P48067); test: Radioligand binding assay using recombinant CHO cell membranes expressing human GlyT1; conditions: read-out: radioligand binding Kiapp
T1 construct: expressed in transfected cells; host or cells: CHO cells (recombinant; membranes)
T1 sequence (P48067 1-706): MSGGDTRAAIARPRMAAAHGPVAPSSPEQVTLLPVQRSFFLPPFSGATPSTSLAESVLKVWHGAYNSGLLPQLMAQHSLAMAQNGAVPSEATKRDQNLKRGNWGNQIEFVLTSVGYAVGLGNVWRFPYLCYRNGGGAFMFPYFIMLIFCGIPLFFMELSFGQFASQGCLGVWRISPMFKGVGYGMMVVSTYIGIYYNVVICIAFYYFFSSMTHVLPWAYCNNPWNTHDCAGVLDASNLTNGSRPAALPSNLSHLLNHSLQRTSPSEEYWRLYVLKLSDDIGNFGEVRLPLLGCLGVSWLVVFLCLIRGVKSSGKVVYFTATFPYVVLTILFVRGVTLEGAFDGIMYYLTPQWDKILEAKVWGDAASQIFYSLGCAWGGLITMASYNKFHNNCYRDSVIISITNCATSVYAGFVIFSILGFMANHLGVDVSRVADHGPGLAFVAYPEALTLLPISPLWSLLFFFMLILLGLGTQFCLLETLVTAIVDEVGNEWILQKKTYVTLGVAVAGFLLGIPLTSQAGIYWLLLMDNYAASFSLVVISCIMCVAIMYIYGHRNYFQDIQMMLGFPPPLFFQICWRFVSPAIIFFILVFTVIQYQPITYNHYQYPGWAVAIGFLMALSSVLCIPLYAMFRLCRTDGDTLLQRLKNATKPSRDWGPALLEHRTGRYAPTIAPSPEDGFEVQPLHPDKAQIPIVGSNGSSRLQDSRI
Procedure: 2. Radioligand Binding Assays Using Recombinant CHO Cell Membranes Expressing Human GlyT1:
Radioligand binding to human GlyT1c transporter-expressing membranes was determined as described in Mezler et al., Molecular Pharmacology 74:1705-1715, 2008.

[1] = Metabolic stability in human liver microsomes (microsomal clearance); assay type: in vitro ADME; conditions: 0.5 μM test substance, 0.25 mg microsomal protein/ml, pH 7.4, 37° C., NADPH
Procedure: The metabolic stability of a compound can be measured for example by incubating a solution of this compound with liver microsomes from particular species (for example rat, dog or human) and determining the half-life of the compound under these conditions (RS Obach, Curr Opin Drug Discov Devel. 2001, 4, 36-44). It is possible in this connection to conclude from an observed longer half-life that the metabolic stability of the compound is improved. The stability in the presence of human liver microsomes is of particular interest because it makes it possible to predict the metabolic degradation of the compound in the human liver. Compounds with increased metabolic stability (measured in the liver microsome test) are therefore probably also degraded more slowly in the liver. The slower metabolic degradation in the liver may lead to higher and/or longer-lasting concentrations (active levels) of the compound in the body, so that the elimination half-life of the compounds of the invention is increased. Increased and/or longer-lasting active levels may lead to a better activity of the compound in therapeutic treatment. […]
Metabolic stability was determined as follows:
0.5 μM test substance was preincubated together with human liver microsomes (0.25 mg of microsomal protein/ml) in 0.05 M potassium phosphate buffer of pH 7.4 in microtiter plates at 37° C. for 5 min. […] The samples were frozen until analyzed. The remaining concentration of undegraded test substance was determined by LC MSMS. The half-life (T½) was determined from the gradient of the signal of test substance/unit time plot, allowing to calculate the half-life of the test substance, assuming first order kinetics, from the decrease in the concentration of the compound with time. The microsomal clearance (mCl) was calculated from mCl=ln 2/T½/(content of microsomal protein in mg/ml)×1000 (modified from references: Di, The Society for Biomolecular Screening, 2003, 453-462; Obach, DMD, 1999 vol 27. N 11, 1350-1359).

SMILES | Ki (human GlyT1c transporter) | human mCl [1]
Cn1cnc(S(=O)(=O)NCCOc2ccc3c(c2)C(Cc2ccccc2)NC3)c1 (stereo not shown) [Example 5, N-[2-(3-Benzylisoindolin-5-yl)oxyethyl]-1-methyl-1H-imidazole-4-sulfonamide] | < 100 nM | <1 µL/min/mg
Cn1cnc(S(=O)(=O)NCc2ccc3c(c2)C(Cc2ccccc2)NC3)c1 (stereo not shown) [Example 4, N-[(3-Benzylisoindolin-5-yl)methyl]-1-methyl-1H-imidazole-4-sulfonamide] | < 1000 nM | <1 µL/min/mg
